Key:
human erythrocytes = assay: Hemolytic activity; format: cell-based; settings: red blood cells
Description: An important characteristic when assessing the biological activity of new chemical compounds is their cytotoxic effect on eukaryotic cells. The ability of an investigated compound to cause the destruction of human erythrocytes illustrates its toxic effect on the internal environment. The hemolysis assay is a simple screening test that can help in the study of cytotoxicity in more complex models. Cell lines obtained from various human organs and tissues that allow for adequate estimation of the effects of new potential drugs on cell metabolism can serve as experimental models.
The hemolytic activity of the QPSs was estimated by comparing the optical density of a solution containing the test compound with that of blood at 100% hemolysis. The experiments were carried out as previously described.

Chang liver cell line = assay: Cytotoxicity assay (Cytell Cell Imaging, DAPI/propidium iodide); format: cell-based, human; settings: for IC50: Homo sapiens, Chang liver, read-out: IC50 (concentration that causes the death of 50% of the cells), Chang liver cells; for IC50 (concentration that causes the death of 50% of the cells): Chang liver cells
[1] = system: Staphylococcus aureus ATCC 6538P FDA 209P; assay: Antimicrobial activity, serial dilution technique in Mueller–Hinton Broth 2; format: cell-based; settings: average of three ± SD, - means non-active; for MIC / MBC: Staphylococcus aureus, Sa; for MIC: read-out: Minimum Inhibitory Concentration (MIC), Sa; for MBC: read-out: Minimum Bactericidal and Fungicidal Concentration (MBC, MFC), Sa
Summary of the method: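 Using a broth serial dilution method in Mueller–Hinton Broth 2, S. aureus ATCC 6538P FDA 209P (3.0 × 10^5 cfu/mL) was exposed to compounds at 37 °C and observed daily over 5 days. MIC was the lowest concentration preventing growth; bacteriostatic absence of growth was also noted, with three replicate experiments.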

[2] = system: Bacillus cereus ATCC 10702 NCTC 8035; assay: as above; format: cell-based; settings: average of three ± SD, - means non-active; for MIC: Bacillus cereus, Bc, read-out: Minimum Inhibitory Concentration (MIC), Bc
Summary of the method: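 Compounds were serially diluted in Mueller–Hinton Broth 2 and inoculated with the Gram-positive strain Bacillus cereus ATCC 10702 NCTC 8035 at 3.0 × 10^5 cfu/mL, then incubated at 37 °C. Observations were taken every 24 h over 5 days in three repeat experiments. The MIC was the lowest concentration that stopped growth, with bacteriostatic absence of growth also noted.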

[3] = system: Enterococcus faecalis ATCC 2921; assay: as above; format: cell-based; settings: average of three ± SD, - means non-active; for MIC: read-out: Minimum Inhibitory Concentration (MIC), Ef
Summary of the method: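 Antibacterial activity against Enterococcus faecalis ATCC 2921 was assessed by serial dilution in Mueller–Hinton Broth 2 with a bacterial load of 3.0 × 10^5 cfu/mL. Cultures were incubated at 37 °C, with growth recorded every 24 h for 5 days, and the experiment was performed three times.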

[4] = system: Escherichia coli ATCC 25922; assay: as above; format: cell-based; settings: average of three ± SD, - means non-active
Summary of the method: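 Growth inhibition is scored in Mueller–Hinton Broth 2 dilution series seeded with 3.0 × 10^5 cfu/mL and held at 37 °C for up to 5 days. Values reported are MICs, the lowest concentration without growth.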

[5] = system: methicillin-resistant S. aureus MRSA-2; assay: as above; format: cell-based, Staphylococcus aureus; settings: MRSA-2 (resistant to beta-lactams), - means non-active
Summary of the method: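 Antimicrobial activity against methicillin-susceptible Staphylococcus aureus MRSA-2, a beta-lactam-resistant clinical isolate from a sinusitis patient at the Republican Clinical Hospital (Kazan), was assessed by serial dilution in Mueller–Hinton Broth 2. The inoculum was 3.0 × 10^5 cfu/mL. Cultures were incubated at 37 °C and read every 24 h for 5 days, in three repeat experiments.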

[6] = system: Escherichia coli ATCC 25922; assay: as above; format: cell-based; settings: average of three ± SD, - means non-active; remark: listed apart in the source
[7] = system: methicillin-resistant S. aureus MRSA-1; assay: as above; format: cell-based, Staphylococcus aureus; settings: MRSA-1 (resistant to fluoroquinolones and beta-lactams); - means non-active
Summary of the method: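 Antimicrobial activity against methicillin-susceptible Staphylococcus aureus MRSA-1, a hospital isolate from a chronic tonsillitis patient that is resistant to fluoroquinolones and beta-lactams, was determined by serial dilution in Mueller–Hinton Broth 2. The bacterial load was 3.0 × 10^5 cfu/mL, incubation was at 37 °C, and growth was recorded every 24 h for 5 days.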

[8] = Enterococcus faecalis, ATCC2921, Ef

SMILES | HC50 (concentration that causes 50% hemolysis of erythrocytes) (human erythrocytes) [µg/mL] | IC50 (Chang liver cell line) [µg/mL] | IC50 (concentration that causes the death of 50% of the cells) (Chang liver cell line) [µg/mL] | other results
CC(C)(C)[P+](C)(C(C)(C)C)C(C)(C)C [Compound 1a] | > 125 | > 100 | – | –
CC[P+](C(C)(C)C)(C(C)(C)C)C(C)(C)C [Compound 2a] | > 125 | > 100 | – | –
CCC[P+](C(C)(C)C)(C(C)(C)C)C(C)(C)C [Compound 3a] | > 125 | > 100 | – | –
CCCC[P+](C(C)(C)C)(C(C)(C)C)C(C)(C)C [Compound 4a] | > 125 | > 100 | – | –
CCCCC[P+](C(C)(C)C)(C(C)(C)C)C(C)(C)C [Compound 5b] | > 125 | > 100 | – | –
CCCCCC[P+](C(C)(C)C)(C(C)(C)C)C(C)(C)C [Compound 6a] | > 125 | > 100 | – | MIC [1]: 125 ± 11 µg/mL
CCCCCC[P+](C(C)(C)C)(C(C)(C)C)C(C)(C)C [Compound 6b] | > 125 | – | > 100 | Minimum Inhibitory Concentration (MIC), Sa [1]: 250 ± 19 µg/mL
CCCCCCC[P+](C(C)(C)C)(C(C)(C)C)C(C)(C)C [Compound 7a] | > 125 | > 100 | – | MIC [2]: 125 ± 10 µg/mL; MIC [3, 8]: 125 µg/mL; MIC [1]: 62.5 ± 5.5 µg/mL
CCCCCCC[P+](C(C)(C)C)(C(C)(C)C)C(C)(C)C [Compound 7b] | > 125 | – | > 100 | MBC [1]: 62.5 µg/mL
CCCCCCCC[P+](C(C)(C)C)(C(C)(C)C)C(C)(C)C [Compound 8a] | > 125 | > 100 | – | MIC [2]: 31.3 µg/mL; MIC [3, 8]: 62.5 µg/mL; MBC [1]: 62.5 µg/mL; MIC ([4]; Escherichia coli, ATCC25922, Ec, read-out: Minimum Inhibitory Concentration (MIC), Ec): 125 µg/mL; MIC ([5]; Staphylococcus aureus, MRSA, read-out: Minimum Inhibitory Concentration (MIC), MRSA-2): 31.3 µg/mL; MBC ([6]; Escherichia coli, ATCC25922, Ec, read-out: Minimum Bactericidal and Fungicidal Concentration (MBC, MFC), Ec): 125 µg/mL
CCCCCCCC[P+](C(C)(C)C)(C(C)(C)C)C(C)(C)C [Compound 8b] | > 125 | – | > 100 | MBC ([3]; Enterococcus faecalis, ATCC2921, Ef, read-out: Minimum Bactericidal and Fungicidal Concentration (MBC, MFC), Ef): 125 µg/mL; Minimum Bactericidal and Fungicidal Concentration (MBC, MFC), Sa [1]: 31.3 µg/mL; Minimum Inhibitory Concentration (MIC), Sa [1]: 31.3 µg/mL; Minimum Inhibitory Concentration (MIC), MRSA-1 [7]: 31.3 µg/mL
CCCCCCCCC[P+](C(C)(C)C)(C(C)(C)C)C(C)(C)C [Compound 9b] | > 125 | – | > 100 | Minimum Inhibitory Concentration (MIC), Bc [2]: 31.3 µg/mL; Minimum Bactericidal and Fungicidal Concentration (MBC, MFC), Ef ([3]; Ef): 125 µg/mL; Minimum Inhibitory Concentration (MIC), Ef ([3]; Ef): 31.3 µg/mL; Minimum Bactericidal and Fungicidal Concentration (MBC, MFC), Sa [1]: 15.6 µg/mL; Minimum Inhibitory Concentration (MIC), Ec ([4]; Ec): 250 µg/mL; Minimum Inhibitory Concentration (MIC), MRSA-2 [5]: 31.3 µg/mL; Minimum Bactericidal and Fungicidal Concentration (MBC, MFC), Ec ([6]; Ec): 250 µg/mL

Reference: publication PMC8744835, “Sterically Hindered Quaternary Phosphonium Salts (QPSs): Antimicrobial Activity and Hemolytic and Cytotoxic Properties” (International Journal of Molecular Sciences, 2021)
